Assay [1] deals with Low Density Lipoprotein. The assay can be described thus: Inhibition of Copper Ion Mediated Oxidation of Low Density Lipoprotein. The assay is classed as biochemical. The conditions noted are these: Cu^+2 mediated oxidation of rabbit or monkey LDL. How it is done:
5. Inhibition of Copper Ion Mediated Oxidation of Low Density Lipoprotein
In this in vitro assay, the inhibition of Cu^+2 mediated oxidation of rabbit or monkey LDL by an invention compound is determined spectrophotometricallly. Oxidation of LDL results in the formation of LDL-diene which absorbs light at 532 nm. Inhibition of oxidation of LDL leads to a decrease in absorbance at 532 nm.
Rabbit or monkey LDL is prepared according to the procedures of Havel, Eder and Gragdon, "The Distribution and Chemical Composition of Ultracentrifugally Separated Lipoproteins in Human Serum,: J, Clin. Invest. 34, 1345-1353 (1955) and Parhtasarathy, Wieland and Steriberg, "A Role for Endothelial Cell Lipoxygenase in the Oxidative Modification of Low Density Lipoprotein," Proc, Natl. Acad. Sci. USA 86, 1046-1050 (1989). Test compound solutions are prepared by dissolving the invention compounds in ethanol at concentrations up to 248 μM. The medium used is Dulbecco's phosphate buffered saline containing 0.5 mg/ml bovine serum albumin. For standards, 0 to 10 μl of an aqueous solution of 1,1,3,3-tetraethoxypropane (1 μmol/ml H2 O) in 4.1 ml of medium is used.
Test compound solution (100 μl) is added to 4 ml of medium in incubation tubes. To each tube is added 10 μl of LDL solution and 25 μl of aqueous copper sulfate solution (1.32 mg/ml H2 O ). The tubes are incubated at 37° C. for 90 minutes and the oxidation reaction quenched by addition of 1 ml of thiobarbituric acid solution (0.67% in 50% acetic acid). The tubes are heated at 90° C. for 1 hour, then chilled in an ice bath and the chromophore extracted into 2 ml of n-butanol. Absorbence is read at 532 nm and the results are reported as nmols of malondialdehyde equivalents.
Significant differences (p<0.05) are determined by the Dunnett T-test or by the Student-Newman-Keuls Test for significant differences between means. The assay is conducted using several concentrations I! of the inhibitor test compounds. The LDL solution concentrations at different experiments were either 1.5 mg/ml, 2.5 mg/ml or 10.3 mg/ml. The IC50 is determined by non-linear regression, plotting log I! vs. % inhibition. (Reference: K. Yagi, Biochemical Medicine 15, 212-216 (1976)).

Assay [2] concerns LT-dependent bronchoconstriction. Description: Inhibition of Bronchoconstriction in Guinea Pigs Induced by Exogenously Administered Antigen (ovalbumin). The conditions noted are these: Cavia porcellus, 5 min; for inhibition in vivo at 10 mg/kg: iv. The assay is classed as in vivo, Male guinea pigs. How it is done: 4. Inhibition of Brochoconstriction in Guinea Pigs Induced by Exogenously Administered Antigen
Male guinea pigs (Charles River, Wilmington, Mass.) were sensitized 3-4 weeks prior to antigen challenge by administration of 2 i.m. injections of ovalbumin, 1 into each hind limb (35 mg total). Sensitized animals (500-600 g) were fasted overnight prior to experimentation. Conscious animals were then dosed p.o. with drug or vehicle alone (0.5% Tween 80 in H2 O) at the indicated times prior to antigen challenge, or anesthetized animals were dosed i.v. with drug or vehicle alone (DMSO) 5 min prior to antigen challenge. Animals were anesthetized by urethane (2.8 g/kg i.p.). A carotid artery and jugular vein were cannulated to allow for the monitoring of blood pressure and the administration of drugs, respectively. The trachea was then cannulated and connected to a Harvard Apparatus rodent ventilator (S. Natick, Mass). Spontaneous respiration was abolished by the administration of succinylcholine (2.5 mg/kg i.v.). The animals were then ventilated with room air at a rate of 65 breaths per min. Airway inflation pressure was measured using a Statham pressure transducer (Gould Instruments, Cleveland, Ohio) connected to the tracheal cannula via a side-arm and recorded on a Grass Instruments recorder (Quincy, Mass). The tidal volume (approximately 10 cc/kg) was adjusted to give a baseline inflation pressure of 8-10 cm H2 O at end inspiration. Animals were then allowed 20 min to stabilize.
Following the stabilization period, animals were given i.v. injections of pyrilamine (5 mg/kg), propranolol (0.1 mg/kg) and indomethacin (10 mg/kg) at 15, 10 and 5 min, respectively, prior to antigen challenge. This pretreatment results in an LT-dependent bronchoconstriction following antigen challenge, which was accomplished by i.v. administration of ovalbumin (10 mg/kg). Only one bronchoconstriction per animal was induced. End-inspiratory inflation pressure (in cm H2 O over baseline) was measured at 5 min post-antigen challenge. A mean value and standard error for the % inhibition of control bronchoconstriction in each drug-treated group was then calculated.

In assay [3] the test system is LTB4. The assay can be described thus: Reverse Passive Arthus Reaction (pleurisy), LTB4 in pleural exudate. In kind it is in vivo, male Lewis rats. The conditions noted are these: p.o. How it is done: 3. Reverse Passive Arthus Reaction
A reverse passive Arthus reaction is induced in the pleural cavity of male Lewis rats (150-200 g; fasted overnight prior to use) by the intravenous administration of bovine serum albumin (BSA; 4 mg/0.2 ml) followed 30 minutes later by the injection of rabbit anti-BSA (1 mg/2.0 ml; lyophilized IgG fraction; Organon Teknika, West Chester, Pa.) into the right pleural space under halothane anesthesia. Drugs or vehicle (0.5% Tween-80) control are administered orally in a volume of 1 ml/100 g body weight at 1 hour prior to the anti-BSA. Animals are sacrificed at either the time of peak eicosanoid production (i.e. 5 minutes after anti-BSA for immunoreactive T×B2, 10 minutes for immunoreactive LTB4, 20 minutes for immunoreactive LTC4) or at the time of peak neutrophil infiltration (4 hours after anti-BSA) by CO2 inhalation. The pleural cavity is then exposed, the fluid exudate removed by gentle vacuum aspiration and the volume of exudate is recorded. For the determination of cellular infiltration, the pleural cavity is rinsed with 3 ml of 0.1% EDTA in sterile saline, and the recovered wash is pooled with the exudate. Cell number is determined on a model ZBI Coulter counter. For determination of eicosanoid production, undiluted pleural exudate is microfuged and the supernatant is extracted with ethanol (8-10 times volume). Extracts are either stored at -20° C., or are evaporated to dryness under a stream of N2 and reconstituted in radioimmunoassay (RIA) buffer.
Eicosanoids are quantitated by RIA according to the procedure specified by the RIA kit manufacturer (Advanced Magnetics, Cambridge, MA). Briefly, 100 μl of ^3 H-labeled eicosanoid and 100 μl of specific antibody are sequentially added to 100 μl of extracted pleural exudate in BGG-phosphate buffer which contains 0.01M phosphate, 0.1% bovine gamma globulin and 0.1% sodium azide at pH 7.0. Antibody-bound eicosanoid is separated from unbound eicosanoid by the addition of 750 μl of dextran (0.4%)-coated charcoal (Norit A) containing 0.1% sodium azide. The mixture is centrifuged at 2000 RPM at 5° C. for 15 minutes to pellet the charcoal and adsorbed unbound eicosanoid. Antibody-bound labeled eicosanoid is quantitated by counting in a liquid scintillation counter, and is correlated to concentration by a standard curve.

Consider four compounds from patent US5504097A, “N-hydroxyureas as 5-lipoxygenase inhibitors and inhibitors of oxidative modification of low density lipoprotein” (American Home Products Corporation, priority 1995, dated 1996).

In assay [1], `Cc1oc(-c2ccccc2)nc1COc1ccc(CN(O)C(N)=O)cc1` [Example 1, 1-Hydroxy-1-4-(5-methyl-2-phenyl-oxazol-4-ylmethoxy)-benzyl!-urea] came in with a 50% inhibitory concentration (IC50) of 1100 nM. Further, the inhibition in vivo at 10 mg/kg in assay [2] was found to be 38%. For the same compound, the “% Inhibition of LTB4 Synthesis” value in assay [3] (10 mg/kg) is 36%; in assay [3] (25 mg/kg), 69%.
The compound `Cc1oc(-c2ccc(C(F)(F)F)cc2)nc1COc1ccc(CN(O)C(N)=O)cc1` [Example 6, 1-Hydroxy-1-4-5-methyl-2-(4-trifluoromethyl-phenyl)-oxazol-4-ylmethoxy!-benzyl!-urea] yielded an inhibition in vivo at 10 mg/kg in assay [2] of 27%. This compound displayed an inhibition in vivo at 25 mg/kg in assay [2] (po) of 27%. The “% Inhibition of LTB4 Synthesis” value in assay [3] (10 mg/kg) is given as 45%.
`NC(=O)N(O)Cc1ccc(OCc2coc(-c3ccccc3)n2)cc1` [Example 9, 1-Hydroxy-1-4-(2-phenyl-oxazol-4-ylmethoxy)-benzyl!-urea] registered an inhibition in vivo at 10 mg/kg in assay [2] of 54%. Besides, testing at 50 mg/kg in assay [2] (po, 50 mg/kg) gave an inhibition in vivo of 44%. Further, the “% Inhibition of LTB4 Synthesis” value in assay [3] (10 mg/kg) worked out at 60%.
`NC(=O)N(O)Cc1ccc(OCc2csc(-c3ccccc3)n2)cc1` [Example 10, 1-Hydroxy-1-4-(2-phenyl-thiazol-4-ylmethoxy)-benzyl!-urea] displayed an inhibition in vivo at 10 mg/kg in assay [2] of 50%. Also, in assay [2] (po), 25 mg/kg produced 24% inhibition in vivo. The “% Inhibition of LTB4 Synthesis” value in assay [3] (10 mg/kg) came out at 99%.
